Measured values from US20250353859A1, “COMPOUNDS AS CCR6 INHIBITORS” (Hoffmann-La Roche Inc., priority 2023, published 2025).

Tests used:
Human CD4+ T cells = experiment: CD4+ T cells chemotaxis assay towards CCL20; type: cell-based; details: CD4+ T cell, 3 h
Text: Human CD4+ T cells were isolated from buffy coats of healthy donors using aCD4+ T Cell Isolation Kit(Miltenyi Biotec 130-096-533). Isolated T cells were stimulated overnight with anti-CD3 and anti-CD28 antibodies (Biolegend 300314/302934) in growth medium (RPMI1640, 10% heat-inactivated FBS, 1× pen/strep (Gibco 15140)). For the chemotaxis assay, Corning Transwell plates were used with a pore size of 5 m (Corning 3388). T cells were counted and diluted to 6*10^6 cells/ml in chemotaxis medium (RPMI1640, 1% BSA, pen/strep). Compounds were four-fold serially diluted in DMSO. Further dilutions were made in chemotaxis medium. Cells were incubated with test compounds for 30 min at 37° C. prior to initiation of the assay (3*10^6 cells/ml). Final DMSO concentration in the assay was 0.2%. Wells of the Transwell plates were filled with 200 μl chemotaxis medium containing 150 ng/ml CCL20 (R&D systems 360-MP). 50 μl of the cell/compound suspension was added to the inserts of the Transwell plates (150,000 cells/insert). The Transwell plates were placed in an incubator at 37° C., 5% CO2 for 3 h. After 3 h, the number of migrated cells was quantified using CellTiter Glo (Promega). Percentage inhibition values were calculated based on the low and high signal obtained with 0.2% DMSO in chemotaxis medium without and with CCL20, respectively. The relative Log IC50 was determined with GraphPad Prism 9 using a four-parameter dose-response model.

human CCR6 = biological target: T1, human CCR6 (Homo sapiens, UniProt P51684); experiment: Human CCR6-CRE reporter assay; type: cell-based; design: The second construct contained the open reading frame of human CCR6 in the pUNO1 backbone; host or cells: 293FT cells (transient transfection with TransIT-293); details: 293FT cells transfected with human CCR6 and CRE-luciferase; Forskolin + CCL20, 5 h; relative Log IC50; read-out: CCR6-CRE reporter (converted)
T1 sequence (P51684 1-374): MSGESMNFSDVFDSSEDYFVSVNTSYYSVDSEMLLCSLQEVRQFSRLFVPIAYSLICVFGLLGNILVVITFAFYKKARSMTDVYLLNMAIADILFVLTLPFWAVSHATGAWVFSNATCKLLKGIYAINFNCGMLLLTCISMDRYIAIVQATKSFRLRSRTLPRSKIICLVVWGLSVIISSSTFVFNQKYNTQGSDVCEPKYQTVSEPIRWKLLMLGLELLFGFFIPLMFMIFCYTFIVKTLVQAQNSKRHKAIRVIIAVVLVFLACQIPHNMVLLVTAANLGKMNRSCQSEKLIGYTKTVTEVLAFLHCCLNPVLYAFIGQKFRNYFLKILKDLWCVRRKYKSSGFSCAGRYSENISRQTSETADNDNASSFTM
Method in brief: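 293FT cells transiently co-transfected with human CCR6 and a CRE-luc2P reporter, used 48 h later. Compounds in medium with 6 μM forskolin and 6 nM CCL20, 0.1% DMSO final, 5 h at 37° C. Luminescence read; relative log IC50 from a four-parameter fit.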

IC50 (Human CD4+ T cells)	IC50 (human CCR6)	SMILES
12.6 nM	39.8 nM	Cc1nnc2ccc(-c3ccc(S(=O)(=O)N4CCC(Nc5ccc(SC(F)(F)F)cn5)CC4)cc3)cn12 [Example 67, N-[1-(4-{3-methyl-[1,2,4]triazolo[4,3-a]pyridin-6-yl}benzenesulfonyl)piperidin-4-yl]-5-[(trifluoromethyl)sulfanyl]pyridin-2-amine]
2 nM	63.1 nM	Cc1cc(-c2ccc(S(=O)(=O)N3CCC(Nc4ccc(SC(F)(F)F)cn4)CC3)cc2)cn2c(C(C)C)nnc12 [Example 68, N-(1-{4-[8-methyl-3-(propan-2-yl)-[1,2,4]triazolo[4,3-a]pyridin-6-yl]benzenesulfonyl}piperidin-4-yl)-5-[(trifluoromethyl)sulfanyl]pyridin-2-amine]
3.98 nM	39.8 nM	Cc1n[nH]c2ncc(-c3ccc(S(=O)(=O)[C@H]4CC[C@H](Nc5ccc(SC(F)(F)F)cc5)CC4)cc3)cc12 [Example 72, N-[trans-4-(4-{3-methyl-1H-pyrazolo[3,4-b]pyridin-5-yl}benzenesulfonyl)cyclohexyl]-4-[(trifluoromethyl)sulfanyl]aniline]
12.6 nM	79.4 nM	O=c1[nH]nc2ccc(-c3ccc(S(=O)(=O)N4CCC(Nc5ccc(SC(F)(F)F)cn5)CC4)cc3)cn12 [Example 74, 6-(4-{[4-({5-[(trifluoromethyl)sulfanyl]pyridin-2-yl}amino)piperidin-1-yl]sulfonyl}phenyl)-2H,3H-[1,2,4]triazolo[4,3-a]pyridin-3-one]
